From ChEMBL document CHEMBL3046000, “Design and synthesis of 1-(benzothiazol-5-yl)-1H-1,2,4-triazol-5-ones as protoporphyrinogen oxidase inhibitors” (Bioorg Med Chem, 2013)

Assays:
[1] = tested on: Chenopodium album; experiment: Post-emergence herbicidal activity against Chenopodium album seedlings assessed as plant growth inhibition at 75 g ai/ha measured 15 days after compound treatment under greenhouse conditions; format: functional; conditions: 360 h, read-out: GI
[2] = tested on: Chenopodium album; experiment: Post-emergence herbicidal activity against Chenopodium album seedlings assessed as plant growth inhibition at 37.5 g ai/ha measured 15 days after compound treatment under greenhouse conditions; format: functional; conditions: 360 h, read-out: GI
[3] = tested on: Chenopodium album; experiment: Post-emergence herbicidal activity against Chenopodium album seedlings assessed as plant growth inhibition at 150 g ai/ha measured 15 days after compound treatment under greenhouse conditions; format: functional; conditions: 360 h, read-out: GI
[4] = tested on: Amaranthus retroflexus; experiment: Post emergence herbicidal activity against Amaranthus retroflexus seedlings assessed as plant growth inhibition at 75 g ai/ha measured 15 days after compound treatment under greenhouse conditions; format: functional; conditions: 360 h, read-out: GI
[5] = tested on: Amaranthus retroflexus; experiment: Post emergence herbicidal activity against Amaranthus retroflexus seedlings assessed as plant growth inhibition at 37.5 g ai/ha measured 15 days after compound treatment under greenhouse conditions; format: functional; conditions: 360 h, read-out: GI
[6] = tested on: Amaranthus retroflexus; experiment: Post emergence herbicidal activity against Amaranthus retroflexus seedlings assessed as plant growth inhibition at 150 g ai/ha measured 15 days after compound treatment under greenhouse conditions; format: functional; conditions: 360 h, read-out: GI
[7] = tested on: Brassica juncea; experiment: Post-emergence herbicidal activity against Brassica juncea seedlings assessed as plant growth inhibition at 75 g ai/ha measured 15 days after compound treatment under greenhouse conditions; format: functional; conditions: 360 h, read-out: GI
[8] = tested on: Brassica juncea; experiment: Post-emergence herbicidal activity against Brassica juncea seedlings assessed as plant growth inhibition at 37.5 g ai/ha measured 15 days after compound treatment under greenhouse conditions; format: functional; conditions: 360 h, read-out: GI
[9] = tested on: Brassica juncea; experiment: Post-emergence herbicidal activity against Brassica juncea seedlings assessed as plant growth inhibition at 150 g ai/ha measured 15 days after compound treatment under greenhouse conditions; format: functional; conditions: 360 h, read-out: GI
[10] = tested on: Setaria faberi; experiment: Post-emergence herbicidal activity against Setaria faberi (Giant Foxtail) seedlings assessed as plant growth inhibition at 75 g ai/ha measured 15 days after compound treatment under greenhouse conditions; format: functional; conditions: 360 h, read-out: GI
[11] = tested on: Setaria faberi; experiment: Post-emergence herbicidal activity against Setaria faberi (Giant Foxtail) seedlings assessed as plant growth inhibition at 37.5 g ai/ha measured 15 days after compound treatment under greenhouse conditions; format: functional; conditions: 360 h, read-out: GI
[12] = tested on: Setaria faberi; experiment: Post-emergence herbicidal activity against Setaria faberi (Giant Foxtail) seedlings assessed as plant growth inhibition at 150 g ai/ha measured 15 days after compound treatment under greenhouse conditions; format: functional; conditions: 360 h, read-out: GI
[13] = tested on: Digitaria sanguinalis; experiment: Post-emergence herbicidal activity against Digitaria sanguinalis (hairy crabgrass) seedlings assessed as plant growth inhibition at 75 g ai/ha measured 15 days after compound treatment under greenhouse conditions; format: functional; conditions: 360 h, read-out: GI
[14] = tested on: Digitaria sanguinalis; experiment: Post-emergence herbicidal activity against Digitaria sanguinalis (hairy crabgrass) seedlings assessed as plant growth inhibition at 37.5 g ai/ha measured 15 days after compound treatment under greenhouse conditions; format: functional; conditions: 360 h, read-out: GI
[15] = tested on: Digitaria sanguinalis; experiment: Post-emergence herbicidal activity against Digitaria sanguinalis (hairy crabgrass) seedlings assessed as plant growth inhibition at 150 g ai/ha measured 15 days after compound treatment under greenhouse conditions; format: functional; conditions: 360 h, read-out: GI
[16] = tested on: Echinochloa crus-galli; experiment: Post emergence herbicidal activity against Echinochloa crus-galli (barnyard grass) seedlings assessed as plant growth inhibition at 75 g ai/ha measured 15 days after compound treatment under greenhouse conditions; format: functional; conditions: 360 h, read-out: GI
[17] = tested on: Echinochloa crus-galli; experiment: Post emergence herbicidal activity against Echinochloa crus-galli (barnyard grass) seedlings assessed as plant growth inhibition at 37.5 g ai/ha measured 15 days after compound treatment under greenhouse conditions; format: functional; conditions: 360 h, read-out: GI
[18] = tested on: Echinochloa crus-galli; experiment: Post emergence herbicidal activity against Echinochloa crus-galli (barnyard grass) seedlings assessed as plant growth inhibition at 150 g ai/ha measured 15 days after compound treatment under greenhouse conditions; format: functional; conditions: 360 h, read-out: GI
[19] = biological target: T1, Protoporphyrinogen oxidase, chloroplastic (Nicotiana tabacum, UniProt O24163); experiment: Inhibition of Nicotiana tabacum (tobacco) recombinant PPO assessed as protoporphyrin IX formation at room temperature by fluorimetric assay
T1 sequence (O24163 whole entry): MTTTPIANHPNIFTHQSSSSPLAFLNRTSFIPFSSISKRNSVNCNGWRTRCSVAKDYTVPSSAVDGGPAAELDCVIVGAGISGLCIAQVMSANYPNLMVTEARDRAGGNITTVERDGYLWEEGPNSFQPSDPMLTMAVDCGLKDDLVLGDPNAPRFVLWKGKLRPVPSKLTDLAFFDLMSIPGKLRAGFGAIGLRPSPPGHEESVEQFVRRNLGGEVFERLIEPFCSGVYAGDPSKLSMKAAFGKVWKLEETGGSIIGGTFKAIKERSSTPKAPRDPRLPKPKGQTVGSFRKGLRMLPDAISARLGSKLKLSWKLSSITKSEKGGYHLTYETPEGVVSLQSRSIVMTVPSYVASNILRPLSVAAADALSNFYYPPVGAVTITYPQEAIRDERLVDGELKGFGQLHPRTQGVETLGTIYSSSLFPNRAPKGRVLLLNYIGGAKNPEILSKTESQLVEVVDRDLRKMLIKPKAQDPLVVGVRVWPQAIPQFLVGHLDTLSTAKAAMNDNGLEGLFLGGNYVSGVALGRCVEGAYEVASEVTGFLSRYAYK

Row | SMILES | Ki [19] [µM] | inhibition of growth at 75 g/ha [1] [%] | inhibition of growth at 37.5 g/ha [2] [%] | inhibition of growth at 150 g/ha [3] [%] | inhibition of growth at 75 g/ha [4] [%] | inhibition of growth at 37.5 g/ha [5] [%] | inhibition of growth at 150 g/ha [6] [%] | inhibition of growth at 75 g/ha [7] [%] | inhibition of growth at 37.5 g/ha [8] [%] | inhibition of growth at 150 g/ha [9] [%] | inhibition of growth at 75 g/ha [10] [%] | inhibition of growth at 37.5 g/ha [11] [%] | inhibition of growth at 150 g/ha [12] [%] | inhibition of growth at 75 g/ha [13] [%] | inhibition of growth at 37.5 g/ha [14] [%] | inhibition of growth at 150 g/ha [15] [%] | inhibition of growth at 75 g/ha [16] [%] | inhibition of growth at 37.5 g/ha [17] [%] | inhibition of growth at 150 g/ha [18] [%]
1 | Cc1nn(-c2cc3nc(SC(C)C(=O)O)sc3cc2Cl)c(=O)n1C(F)F (configuration not stated) | 6.73 | ≥ 90 | 60 | ≥ 90 | 60 | < 50 | ≥ 90 | 80 | < 50 | ≥ 90 | < 50 | < 50 | ≥ 90 | < 50 | < 50 | ≥ 90 | < 50 | < 50 | ≥ 90
2 | Cc1nn(-c2cc3nc(SCCC(=O)O)sc3cc2Cl)c(=O)n1C(F)F | 17.8 | < 50 | < 50 | ≥ 90 | < 50 | < 50 | ≥ 90 | 60 | 50 | ≥ 90 | 60 | 60 | < 50 | < 50 | < 50 | < 50 | 50 | 50 | < 50
3 | Cc1nn(-c2cc3nc(SCC(=O)O)sc3cc2Cl)c(=O)n1C(F)F | 10.3 | ≥ 90 | 80 | ≥ 90 | ≥ 90 | 50 | ≥ 90 | ≥ 90 | 60 | ≥ 90 | < 50 | < 50 | ≥ 90 | < 50 | < 50 | ≥ 90 | < 50 | < 50 | ≥ 90
4 | Cc1nn(-c2cc3nc(SCCC(=O)O)sc3cc2F)c(=O)n1C(F)F | 1.67 | ≥ 90 | 80 | ≥ 90 | ≥ 90 | 60 | ≥ 90 | ≥ 90 | 60 | ≥ 90 | 50 | < 50 | < 50 | 50 | < 50 | 50 | < 50 | < 50 | 50
5 | COC(=O)CSc1nc2cc(-n3nc(C)n(C(F)F)c3=O)c(Cl)cc2s1 | 15.2 | ≥ 90 | ≥ 90 | 60 | ≥ 90 | 60 | ≥ 90 | 80 | 60 | ≥ 90 | 50 | 50 | ≥ 90 | < 50 | < 50 | ≥ 90 | 50 | 50 | ≥ 90

These reach a lower Ki [19]. Values come first.

Row | Ki [19] [µM] | SMILES | inhibition of growth at 75 g/ha [1] [%] | inhibition of growth at 37.5 g/ha [2] [%] | inhibition of growth at 150 g/ha [3] [%] | inhibition of growth at 75 g/ha [4] [%] | inhibition of growth at 37.5 g/ha [5] [%] | inhibition of growth at 150 g/ha [6] [%] | inhibition of growth at 75 g/ha [7] [%] | inhibition of growth at 37.5 g/ha [8] [%] | inhibition of growth at 150 g/ha [9] [%] | inhibition of growth at 75 g/ha [10] [%] | inhibition of growth at 37.5 g/ha [11] [%] | inhibition of growth at 150 g/ha [12] [%] | inhibition of growth at 75 g/ha [13] [%] | inhibition of growth at 37.5 g/ha [14] [%] | inhibition of growth at 150 g/ha [15] [%] | inhibition of growth at 75 g/ha [16] [%] | inhibition of growth at 37.5 g/ha [17] [%] | inhibition of growth at 150 g/ha [18] [%]
6 | 1.21 | Cc1nn(-c2cc3nc(SC(C)C(=O)O)sc3cc2F)c(=O)n1C(F)F (configuration not stated) | ≥ 90 | 50 | ≥ 90 | ≥ 90 | ≥ 90 | ≥ 90 | ≥ 90 | ≥ 90 | ≥ 90 | 60 | 60 | ≥ 90 | < 50 | < 50 | ≥ 90 | 60 | 60 | ≥ 90
7 | 0.29 | COC(=O)Sc1nc2cc(-n3nc(C)n(C(F)F)c3=O)c(F)cc2s1 | ≥ 90 | 50 | ≥ 90 | 50 | < 50 | ≥ 90 | 50 | < 50 | ≥ 90 | < 50 | < 50 | < 50 | 60 | 60 | 60 | 50 | 50 | 60
8 | 1.08 | COC(=O)CSc1nc2cc(-n3nc(C)n(C(F)F)c3=O)c(F)cc2s1 | ≥ 90 | < 50 | ≥ 90 | ≥ 90 | ≥ 90 | ≥ 90 | ≥ 90 | 60 | ≥ 90 | 60 | 60 | ≥ 90 | < 50 | < 50 | ≥ 90 | 60 | 60 | ≥ 90
